Results reported in ChEMBL document CHEMBL1156829 (Proc Natl Acad Sci U S A, 2008).
Where “and” joins values, the source holds several entries; their conditions need not be identical. Equal entries are not always repeated.

Key:
[1] = test system: Plasmodium falciparum; test: NOVARTIS: Inhibition of Plasmodium falciparum 3D7 (drug-susceptible) proliferation in erythrocyte-based infection assay; type: functional, organism-based
[2] = test system: Plasmodium falciparum; test: NOVARTIS: Inhibition of Plasmodium falciparum W2 (drug-resistant) proliferation in erythrocyte-based infection assay; type: functional, organism-based; details: read-out: EC50
[3] = NOVARTIS: Cytotoxicity against human hepatocellular carcinoma cell line (Huh7); type: toxicity, cell-based, Huh-7; details: Huh7 cells (hepatocellular carcinoma cell line)

Compound	EC50 [1]	EC50 [2]	CC50 [3] [nM]	EC50 ([1]; Plasmodium falciparum, 3D7) [nM]	EC50 ([2]; Plasmodium falciparum, W2) [nM]
CCN1C(=Cc2sc3ccccc3[n+]2C)C=Cc2ccc(C)cc21	1650 nM	> 1420 nM	> 11800	–	–
CCCC[n+]1c(C=C2C=Cc3ccccc3N2CC)sc2ccccc21	724 nM	694 nM	> 10000	–	–
COc1cc(/C=C2\CC/C(=C\c3cc(OC)c(OC)c(OC)c3)C2=O)cc(OC)c1OC	–	–	873	458	457
OCCCNc1cc(-c2ccnc(Nc3cccc(Cl)c3)n2)ccn1	–	–	269	232	186
Cc1cc(Nc2cc3ccccc3cc2O)n2ncnc2n1	–	–	1750	1340	1290
CCOc1ccc(Nc2nc(N)c3ccccc3n2)cc1	–	–	2370	862	1580
Cc1ccc(Cl)cc1-n1c(SCc2ccccc2)nnc1C(Cc1ccccc1)NC(=O)C12CC3CC(CC(C3)C1)C2 (configuration not stated)	–	–	1130	> 1250	> 954
CC(C)c1cccc(C(C)C)c1NC(=O)N(Cc1ccccc1)C(C)c1nc2ccccc2c(=O)n1-c1ccc(Cl)cc1 (configuration not stated)	–	–	> 1460	985	1020
CCN(CC)CCN1C(=O)c2ccc3c4c(ccc(c24)C1=O)C(=O)N(CCN(CC)CC)C3=O	–	–	221	244	136
Cc1ccc(S(=O)(=O)N2CCN(C(=O)c3ccccc3)C2c2ccccc2)cc1 (configuration not stated)	–	–	10600	> 12500	6290
CCCCCN(C(=O)CCc1ccccc1)C(CC)c1nc2ccccc2c(=O)n1-c1ccc(Cl)cc1C (configuration not stated)	–	–	> 305	> 1000	1740
CCN1C(=Cc2sc3ccc(Cl)cc3[n+]2CC)C=Cc2cc(OC)ccc21	473 nM	602 nM	> 10000	–	–
Cc1noc(C)c1S(=O)(=O)N(CC(C)C)C(C(=O)NC(CN1CCCC1)c1ccccc1)c1ccccc1 (configuration not stated)	–	–	2820	775	1660
Cc1cccc(OCC(O)CN2CCN(CC(=O)c3ccc(Br)cc3)CC2)c1 (configuration not stated)	–	–	214	> 1250	896
COc1cc(C(=O)N2C(C(=O)Nc3ccccc3F)CSC2c2ccc(C(C)(C)C)cc2)cc(OC)c1OC (configuration not stated)	–	–	> 2310	1040	1280
Cc1ccc(C(=O)Nc2ccc(-c3nc4ccc(NC(=O)c5ccc(C)cc5)cc4[nH]3)cc2)cc1	–	–	1890	1570	> 5780
COc1ccc(SC2CCN(C3CCOCC3)CC2)cc1	–	–	240	> 1470	358
O=C(Nc1cc(Cl)cc(Cl)c1)Nc1cccc(C(F)(F)F)c1	–	–	14900	13.8	> 12500
Cc1ccccc1N(CC(=O)NCC1CCCO1)C(=O)c1snc(C(N)=O)c1N (configuration not stated)	–	–	> 2400	> 706	> 1250
COc1ccc(Nc2nc3nonc3nc2NN=Cc2cc(Cl)ccc2O)cc1	–	–	> 3170	1780	1620
CC(=O)N(C)C1=C(N2CCOCC2)C(=O)c2ccccc2C1=O	–	–	590	254	288

Compound	EC50 [1]	EC50 [2]	CC50 [3] [nM]	EC50 ([1]; Plasmodium falciparum, 3D7) [nM]	EC50 ([2]; Plasmodium falciparum, W2) [nM]
Nc1nc(N)c2cc(S(=O)(=O)N3CCCCC3)ccc2n1	–	–	2670	20.2	> 1250
Oc1ccc(C=NN=C(Nc2ccccn2)c2ccccn2)c(O)c1	–	–	> 245	> 1250	> 674
Cn1ncnc2c(=O)n(C)c(=O)nc1-2	–	–	199	> 12500	481
COc1cnc(-c2ccccn2)nc1NC(C)C	–	–	2500	712	1100
COc1ccc(CCN(C(=S)Nc2ccccc2)C2CC(=O)N(c3ccc(F)cc3)C2=O)cc1OC (configuration not stated)	–	–	> 1910	> 1740	1560
CCc1nc2ccc(NC(=O)c3ccncc3)cc2c(=O)n1Cc1cccc(OC)c1	–	–	> 570	1570	427
CC1=C(CO)C(=O)O[C@@H]([C@@H](C)[C@H]2CC[C@H]3[C@@H]4C[C@H]5O[C@]56[C@@H](O)C=CC(=O)[C@]6(C)C4CC[C@]23C)C1 (some centres not stated)	–	–	3630	4970	1680
CCCCc1ccc(C(=O)NCCCN(C(=O)Nc2ccc([N+](=O)[O-])cc2)c2ccccc2)cc1	–	–	2680	> 1250	1210
CC1CC(C)CC(C)C(O)C(C#N)=CC=CCC(C2CCCC2C(=O)O)OC(=O)CC(O)C(C)C1 (configuration not stated)	–	–	2850	43.7	> 1250
Cc1ccc(O)c(C(=O)c2c[nH]c(-c3nc4ccccc4[nH]3)c2)c1	–	–	5650	2880	2470
COC(=O)c1sc2nc(CN(C)Cc3nccs3)ccc2c1NC(=O)c1ccc(C)s1	–	–	> 2840	> 1330	1150
CCN(CC)Cc1ccc2c(NC(=O)c3ccc(C)s3)c(C(=O)OC)sc2n1	–	–	1240	1230	1190
Cc1oc2c(c1C(=O)NCc1cccnc1)C(=O)c1ccccc1C2=O	–	–	1910	1500	1750
FC(F)(F)c1cccc(Nc2nc3nonc3nc2Nc2ccc(Br)cc2)c1	–	–	7130	7620	5200
CC1=CC(=O)OC[C@]23C[C@H](O)C(C)=C[C@H]2O[C@@H]2C[C@@H](OC(=O)C=CC=CC(=O)OCC1)[C@@]3(C)[C@]21CO1	2.44 nM	1.77 nM	83.7	–	–
C=CCN1C=CC(=Cc2sc3ccccc3[n+]2C)c2ccccc21	432 nM	–	> 9370	–	125
CCOC(=O)c1cnc2ccc(OC)cc2c1O	727 nM and 245 nM	721 nM	> 100000	–	1300
Cc1ccc(C=Cc2ccc(N(C)C)cc2)[n+](C)c1	397 nM	400 nM	> 60500	–	–
CC1=C[C@H]2O[C@@H]3C[C@H]4OC(=O)C=CC=C[C@H]([C@@H](C)O)OCC[C@@H](C)[C@H](O)C(=O)OC[C@@]2(CC1)[C@]4(C)[C@@]31CO1	< 0.572 nM	< 0.572 nM	6.04	–	–
COc1cccc2c1C(=O)c1c(O)c3c(c(O)c1C2=O)C[C@](O)(C(C)=O)C[C@@H]3O[C@H]1C[C@@H](N)[C@H](O)[C@H](C)O1	–	–	129	308	213
CN(C=Cc1sc2ccc3ccccc3c2[n+]1C)c1ccccc1	239 nM	153 nM	64300	–	–

Compound	EC50 [1]	EC50 [2]	CC50 [3] [nM]	EC50 ([1]; Plasmodium falciparum, 3D7) [nM]	EC50 ([2]; Plasmodium falciparum, W2) [nM]
O=C(NCCC1=CCCCC1)c1ccc2c(=O)n(-c3ccccc3)c(SCc3nc4ccccc4[nH]3)nc2c1	–	–	> 912	> 1250	1460
c1ccc(CSc2nnc3c(n2)[nH]c2ccccc23)cc1	> 1060 nM	> 748 nM	> 10000	1300	1320
CCCCCCC1CCC(O)(C(C)(O)C(=O)NC2C(=O)N3NCCCC3C(=O)N(O)C(COC)C(=O)NCC(=O)N3NCCCC3C(=O)N(O)C(C)C(=O)OC2C)OC1C (configuration not stated)	–	–	197	219	124
COc1ccc(CN2CCC(Sc3ncccn3)CC2)cc1	–	–	702	> 1440	950
CC[n+]1cc(C)ccc1C=Cc1ccc(N(C)C)cc1	195 nM	232 nM	15200	–	–
c1ccc(CNc2nc(-c3ccccn3)nnc2-c2ccccc2)cc1	–	–	630	182	326
CN[C@H]1C[C@@H]2O[C@](C)([C@H]1O)n1c3ccccc3c3c4c(c5c6ccccc6n2c5c31)C(=O)NC4	–	–	32.3	55.4	52.1
CC(C)CC[n+]1ccccc1C=Cc1ccc(N(C)C)cc1	82.9 nM	150 nM	> 30000	–	–
CC1=CC[C@@H](/C(C)=C/c2csc(C)n2)OC(=O)C[C@H](O)C(C)(C)C(=O)[C@H](C)[C@@H](O)[C@@H](C)CCC1	–	–	6.21	85.4	25.8
O=C(Nc1cccc(Cl)c1)Nc1cc(C(F)(F)F)cc(C(F)(F)F)c1	–	–	19500	3220	> 9990
CCN(CC)c1ccc(/C=C(/C#N)c2nc3ccccc3[nH]2)o1	–	–	> 333	> 1250	> 702
Cn1cc(/C=C/c2cc[n+](C)cc2)c2ccccc21	92.8 nM	–	> 8990	–	314
Nc1nc(N)c2cc(S(=O)(=O)N3CCOCC3)ccc2n1	–	–	5050	62.6	> 12500
O=C(Cc1cccnc1)N1CCC(Oc2ccncc2)CC1	–	–	104	626	141
Cc1ccccc1N=c1oc2ccc3ccccc3c2cc1-c1nc2ccccc2[nH]1	–	–	> 2100	> 997	> 1250
CC(C)CC(N)C(=O)NCCCNc1nsc2ccccc12 (configuration not stated)	–	–	15900	2820	> 12100
CC[C@H](C)C[C@H]1CC[C@](O)([C@](C)(O)C(=O)N[C@@H]2C(=O)N3NCCC[C@@H]3C(=O)N(O)[C@@H](C)C(=O)NCC(=O)N3NCCC[C@H]3C(=O)N(O)[C@H](C)C(=O)O[C@H]2C(C)C)O[C@@H]1C	–	–	465	438	567
CN(C)c1cc[n+](Cc2c(Cl)cccc2Cl)cc1	–	–	642	140	598
CC(=O)Nc1ccc2c(c1)C(=O)N(C(C(=O)NCc1ccccc1)C1CCCCC1)[C@@H](Cc1ccc(O)cc1)C(=O)N2 (some centres not stated)	–	–	659	807	555
CCC1CC2CCC(O2)C(C)C(=O)OC(C)CC2CCC(O2)C(C)C(=O)OC(CC)CC2CCC(O2)C(C)C(=O)OC(C)CC2CCC(O2)C(C)C(=O)O1 (configuration not stated)	–	–	356	162	228
COC(=O)c1ccc(C2C3=C(O)CC(c4ccc(C)cc4)CC3=Nc3ccccc3N2C(=O)c2cccs2)cc1 (configuration not stated)	328 nM and 88 nM	808 nM and 264 nM	> 100000	–	–
